Measured values reported in patent US20250002475A1 (EPICS THERAPEUTICS, priority 2023, published 2025).
pIC50: −log10 of the molar value.

Tests used:
[1] = biological target: T1, recombinant METTL3/METTL14 complex (Homo sapiens, UniProt Q86U44); assay: METTL3/14 Scintillation Proximity Assay (SPA), RNA methyltransferase activity; assay type: biochemical; conditions: 5.31 nM METTL3/14 complex, 250 nM RNA substrate, 1 μM 3H-SAM, 90 min; for compounds marked * best of the two separated forms
T1 construct: purchased Active Motif 311970; host or cells: Sf9 cells
T1 sequence (Q86U44 whole entry): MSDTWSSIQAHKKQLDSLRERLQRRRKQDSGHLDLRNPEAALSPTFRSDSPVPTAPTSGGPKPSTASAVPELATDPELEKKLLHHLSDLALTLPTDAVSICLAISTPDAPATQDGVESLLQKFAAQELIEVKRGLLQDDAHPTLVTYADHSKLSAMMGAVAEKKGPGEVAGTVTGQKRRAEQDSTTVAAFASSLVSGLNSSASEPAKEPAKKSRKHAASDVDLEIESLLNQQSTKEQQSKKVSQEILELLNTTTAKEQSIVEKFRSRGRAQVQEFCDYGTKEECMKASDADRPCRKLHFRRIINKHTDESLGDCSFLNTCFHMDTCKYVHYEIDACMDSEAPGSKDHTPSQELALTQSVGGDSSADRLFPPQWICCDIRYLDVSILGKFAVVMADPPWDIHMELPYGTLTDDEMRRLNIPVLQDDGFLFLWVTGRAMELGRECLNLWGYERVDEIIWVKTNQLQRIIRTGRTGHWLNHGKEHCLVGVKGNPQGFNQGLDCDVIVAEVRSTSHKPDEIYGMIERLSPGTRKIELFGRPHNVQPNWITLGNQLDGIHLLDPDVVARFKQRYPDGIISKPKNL
T1 sequence (Q9HCE5 whole entry partner): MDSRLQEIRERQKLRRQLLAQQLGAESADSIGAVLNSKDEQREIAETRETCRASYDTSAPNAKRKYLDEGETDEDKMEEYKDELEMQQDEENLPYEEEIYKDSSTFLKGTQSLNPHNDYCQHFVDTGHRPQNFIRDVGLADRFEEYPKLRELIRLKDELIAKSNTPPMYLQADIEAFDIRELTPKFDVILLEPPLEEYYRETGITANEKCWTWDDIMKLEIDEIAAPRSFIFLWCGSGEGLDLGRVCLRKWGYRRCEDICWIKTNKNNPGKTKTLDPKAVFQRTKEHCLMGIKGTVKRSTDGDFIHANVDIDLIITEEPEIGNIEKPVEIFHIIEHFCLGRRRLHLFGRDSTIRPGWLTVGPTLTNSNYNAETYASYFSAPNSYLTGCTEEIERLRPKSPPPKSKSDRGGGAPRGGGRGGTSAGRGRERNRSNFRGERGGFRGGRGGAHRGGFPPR

Caov-3 cells = assay: Caov-3 cellular viability assay (ATP-Lite, 72 h); assay type: cell-based; conditions: Homo sapiens, ATP-Lite luminescence, % viability relative to DMSO
Outline: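 10000 cells/well treated 72 h at 37 °C, 5% CO2, in RPMI-1640 with 10% FBS and 0.1% DMSO final. Viability by ATP-Lite One Step luminescence. Expressed as % of DMSO control, with IC50 from each compound's concentration-response curve.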

Kasumi-1 cells = assay: Kasumi-1 cellular viability assay (ATP-Lite, 72 h); assay type: cell-based; conditions: Homo sapiens, ATP-Lite luminescence, % viability relative to DMSO
Outline: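 Kasumi-1 AML cells, 15000/well in RPMI-1640 with 10% FBS, were exposed to compound titrations (0.1% final DMSO) for 72 h at 37 °C, 5% CO2. ATP-Lite One Step luminescence gave % viability versus DMSO control, and IC50 came from the concentration-response.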

Row | Compound | pIC50 [1] | pIC50 (Caov-3 cells) | pIC50 (Kasumi-1 cells)
1 | COC1CN(c2cncc(-c3cn(C(C)n4ccc(N5CCC[C@@H](NCC6CC6)C5)cc4=O)nn3)n2)C1 (single isomer, unassigned) [Compound 246] | ≥ 7.30 | ≥ 6.30 | ≥ 6.30
2 | CC(n1cc(-c2cncc(N3CC4(CC4)C3)n2)nn1)n1ccc(N2CCC[C@@H](NCC3CC3)C2)cc1=O (single isomer, unassigned) [Compound 247] | ≥ 7.30 | ≥ 6.30 | ≥ 6.30
3 | CC(c1cnn(-c2cncc(N3CCCC3)c2)c1)n1ccc(N2CCC[C@@H](NCC3CC3)C2)cc1=O (single isomer, unassigned) [Compound 253] | ≥ 7.30 | ≥ 6.30 | ≥ 6.30
4 | CC(n1cc(-c2cncc(N3CC4(C3)CC4(F)F)n2)nn1)n1ccc(N2CCC[C@@H](NCC3CC3)C2)cc1=O (single isomer, unassigned) [Compound 254] | ≥ 7.30 | ≥ 6.30 | ≥ 6.30
5 | COc1cncc(-c2cn(C(C)c3ccc(N4CCC[C@@H](NCC5CCC5)C4)nn3)nn2)n1 (single isomer, unassigned) [Compound 258] | ≥ 7.30 | 5.30 to 6.30 | 5.30 to 6.30
6 | CC(c1ccc(N2CCC[C@@H](NCC3CC3)C2)cn1)n1cc(-c2cncc(N3CCCC3)n2)nn1 (single isomer, unassigned) [Compound 259] | ≥ 7.30 | ≥ 6.30 | ≥ 6.30
7 | CC(c1ccc(N2CCC[C@@H](NCC3CC3)C2)cn1)n1cc(-c2cncc(N(C)C)n2)nn1 (single isomer, unassigned) [Compound 260] | ≥ 7.30 | ≥ 6.30 | ≥ 6.30
8 | CC(c1ccc(N2CCC[C@@H](NCC3CCC3)C2)nn1)n1cc(-c2cncc(N3CC4CC4C3)n2)nn1 (single isomer, unassigned) [Compound 284] | ≥ 7.30 | ≥ 6.30 | ≥ 6.30
9 | CC(c1ccc(N2CCC[C@@H](NCC3CCC3)C2)nn1)n1cc(-c2cncc(N3CCCC3)n2)nn1 (single isomer, unassigned) [Compound 285] | ≥ 7.30 | ≥ 6.30 | ≥ 6.30
10 | CC(c1ccc(N2CCC[C@@H](NCC3CCC3)C2)cn1)n1cc(-c2cncc(N3CC4CC4C3)n2)nn1 (single isomer, unassigned) [Compound 286] | ≥ 7.30 | ≥ 6.30 | ≥ 6.30
11 | CC(c1ccc(N2CCC[C@@H](NCC3CCC3)C2)cn1)n1cc(-c2cncc(-n3cccn3)n2)nn1 (single isomer, unassigned) [Compound 293] | ≥ 7.30 | 5.30 to 6.30 | 5.30 to 6.30
12 | COc1cncc(-c2cn(C(C)c3ccc(N4CCC[C@@H](NCC5CCC5)C4)cc3)cn2)c1 (single isomer, unassigned) [Compound 296] | ≥ 7.30 | 5.30 to 6.30 | 5.30 to 6.30
13 | CC(c1ncc(N2CCC[C@@H](NCC3CCC3)C2)cc1F)n1cc(-c2cncc(N3CCCC3)n2)nn1 (single isomer, unassigned) [Compound 303] | ≥ 7.30 | ≥ 6.30 | ≥ 6.30
14 | CC(c1ccc(N2CCC[C@@H](NCC3CC3)C2)nn1)n1cc(-c2cncc(N3CCCC3)n2)nn1 (single isomer, unassigned) [Compound 309] | ≥ 7.30 | ≥ 6.30 | ≥ 6.30
15 | CC(c1ccc(N2CCC[C@@H](NCC3CC3)C2)nn1)n1cc(-c2cncc(C3CC3)c2)nn1 (single isomer, unassigned) [Compound 317] | ≥ 7.30 | ≥ 6.30 | ≥ 6.30
16 | CC(c1ccc(N2CCC[C@@H](NCC3CC3)C2)nn1)n1cnc(-c2cncc(N3CCCC3)n2)c1 (single isomer, unassigned) [Compound 340] | ≥ 7.30 | ≥ 6.30 | ≥ 6.30
17 | CC(c1ccc(N2CCC[C@@H](NCC3CC3)C2)nn1)n1cnc(-c2cncc(C3CC3)c2)c1 (single isomer, unassigned) [Compound 342] | ≥ 7.30 | ≥ 6.30 | ≥ 6.30
18 | CC(c1ccc(N2CCC[C@@H](NCC3CC3)C2)nn1)c1nnc(-c2cncc(N3CCCC3)n2)o1 (single isomer, unassigned) [Compound 347] | ≥ 7.30 | 5.30 to 6.30 | 5.30 to 6.30
19 | CC(c1ccc(N2CCC[C@@H](NCC3(C)CC3)C2)nn1)n1cnc(-c2cncc(N3CCCC3)n2)c1 (single isomer, unassigned) [Compound 348] | ≥ 7.30 | ≥ 6.30 | ≥ 6.30
20 | CC(c1cnn(-c2cncc(N3CCCC3)n2)c1)c1ccc(N2CCC[C@@H](NCC3CC3)C2)cn1 (single isomer, unassigned) [Compound 354] | ≥ 7.30 | ≥ 6.30 | ≥ 6.30
21 | CC(c1ccc(N2CCC[C@@H](NCC3CC3)C2)cn1)n1cnc(-c2cncc(N3CCCC3)n2)c1 (single isomer, unassigned) [Compound 355] | ≥ 7.30 | ≥ 6.30 | ≥ 6.30
22 | CC(c1cnn(-c2cncc(C3CC3)c2)c1)c1ccc(N2CCC[C@@H](NCC3CC3)C2)cn1 (single isomer, unassigned) [Compound 356] | ≥ 7.30 | ≥ 6.30 | ≥ 6.30
23 | CC(c1ccc(N2CCC[C@@H](NCC3CC3)C2)cn1)n1cc(-c2cncc(C3CC3)c2)nn1 (single isomer, unassigned) [Compound 357] | ≥ 7.30 | ≥ 6.30 | ≥ 6.30
24 | CC(c1ccc(N2CCC[C@@H](NCC3CC3)C2)cn1)c1nnc(-c2cncc(N3CCCC3)n2)s1 (single isomer, unassigned) [Compound 360] | ≥ 7.30 | ≥ 6.30 | ≥ 6.30
25 | CC(c1ccc(N2CCC[C@@H](NCC3(C)CC3)C2)cn1)n1cnc(-c2cncc(N3CCCC3)n2)c1 (single isomer, unassigned) [Compound 365] | ≥ 7.30 | ≥ 6.30 | ≥ 6.30
26 | CC(c1ccc(N2CCC[C@@H](NCC3(C)CC3)C2)cn1)c1nnc(-c2cncc(N3CCCC3)n2)s1 (single isomer, unassigned) [Compound 366] | ≥ 7.30 | ≥ 6.30 | ≥ 6.30
27 | c1cc(C2(n3cc(-c4cncc(N5CCCC5)n4)nn3)COC2)ncc1N1CCCC(NCC2CCC2)C1 (stereo in doubt) [Compound 290, (R)-N-(cyclobutylmethyl)-1-(6-(3-(4-(6-(pyrrolidin-1-yl)pyrazin-2-yl)-1H-1,2,3-triazol-1-yl)oxetan-3-yl)pyridin-3-yl)piperidin-3-amine] | ≥ 7.30 | ≥ 6.30 | ≥ 6.30
28 | COc1cc(-c2cn(Cc3ccc(N4CCC[C@@H](NCC5CCC5)C4)nn3)nn2)c2cn[nH]c2c1 [Compound 001, (R)-N-(cyclobutylmethyl)-1-(6-((4-(6-methoxy-1H-indazol-4-yl)-1H-1,2,3-triazol-1-yl)methyl)pyridazin-3-yl)piperidin-3-amine] | ≥ 7.30 | ≥ 6.30 | 5.30 to 6.30
29 | O=C(NCc1ccc(N2CCC[C@@H](NCC3CCC3)C2)nn1)c1cc(=O)n2ccccc2n1 [Compound 002, (R)-N-((6-(3-((cyclobutylmethyl)amino)piperidin-1-yl)pyridazin-3-yl)methyl)-4-oxo-4H-pyrido[1,2-a]pyrimidine-2-carboxamide] | ≥ 7.30 | < 5.30 | < 5.30
